From US11198687B2, “Heteroaryl allosteric modulators of nicotinic acetylcholine receptors” (Merck Sharp & Dohme Corp., priority 2017, dated 2021) come the findings set out here.

Like-named read-outs stand apart in the source and are kept apart here.

The target of this test is human α7 nAChR (Homo sapiens, UniProt P36544). The experiment in a line: Automated patch-clamp electrophysiology functional assay (Assay A). Format: cell-based. To be noted: IonFlux HT whole-cell population patch, HEK cell line stably expressing human RIC-3 and human α7, 40 μM acetylcholine. Here is the method: The α7 nAChR positive allosteric modulator (PAM) activity of the present compounds may be tested using assays known in the art. […] The assay was performed using the IonFlux HT in a whole-cell, population patch configuration. See Golden et al. Assay Drug Dev. Technol. (2011) 9:608-619. The compounds were assessed for their ability to modulate the function of the human α7 nAChR stably expressed in a HEK cell line both in the presence, and in the absence of the natural α7 agonist acetylcholine. By performing a series of such measurements at different concentrations, the effective concentration of the α7 nAChR PAMs (EC50) was determined. See Spencer et al. Assay Drug Dev. Technol. (2012) 10:313-324.
Chain of human α7 nAChR (P36544 23-502): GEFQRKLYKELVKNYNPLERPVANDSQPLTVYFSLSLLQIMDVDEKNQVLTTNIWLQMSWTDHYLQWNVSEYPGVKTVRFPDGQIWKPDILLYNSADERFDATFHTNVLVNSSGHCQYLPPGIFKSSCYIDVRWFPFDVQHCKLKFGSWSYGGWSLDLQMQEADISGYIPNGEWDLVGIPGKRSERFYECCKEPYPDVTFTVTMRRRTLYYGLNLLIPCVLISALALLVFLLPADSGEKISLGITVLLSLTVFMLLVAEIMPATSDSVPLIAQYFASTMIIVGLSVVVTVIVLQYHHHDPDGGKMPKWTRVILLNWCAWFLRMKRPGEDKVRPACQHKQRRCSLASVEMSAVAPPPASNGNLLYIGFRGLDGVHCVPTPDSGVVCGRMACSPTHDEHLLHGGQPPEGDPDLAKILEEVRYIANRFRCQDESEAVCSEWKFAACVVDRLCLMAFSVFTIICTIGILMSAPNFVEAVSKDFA
Direct activation of α7 (agonism), and potentiation of acetylcholine-evoked α7 currents was determined as follows:
Automated Patch-Clamp Electrophysiology Functional Assay (Assay A)
Automated patch-clamp electrophysiology was performed using the IonFlux HT (Fluxion Biosciences Inc., San Francisco, Calif.) in the whole-cell, population patch configuration. Test compounds were assessed for their ability to modulate the function of the α7 nicotinic acetylcholine receptor both in the presence, and in the absence of the natural α7 agonist acetylcholine. A HEK cell line stably expressing both human RIC-3 and human α7 (PrecisION hnAChR α7/RIC-3, Eurofins Pharma, St. Charles, Mo.) was cultured in 175 cm^2 triple-layer tissue culture flasks to no more than 90% confluency in DMEM/F-12 growth media supplemented with 10% heat-inactivated fetal bovine serum, 1% non-essential amino acids, 0.625 μg/mL Puromycin, and 400 μg/mL Geneticin. Immediately prior to assay, cells were detached by first aspirating growth media, rinsing with Dulbecco's phosphate buffered saline, and then adding 10 mL of Accutase (Innovative Cell Technologies, San Diego, Calif.) to the flask and then incubating at 37° C. for 5 minutes. Detached cells were then recovered by the addition of 40 mL of CHO-serum-free media supplemented with 25 mM HEPES, and rocked gently in a 50 mL conical tube for 20 minutes prior to patch-clamp assay. […] The cell suspension was added to the cell inlet wells on an IonFlux HT population patch plate which had previously been rinsed and primed with deionized H2O. Test compounds were serially diluted in DMSO and then resuspended to the final test concentration in external recording solution, with, or without 40 μM acetylcholine added to the external recording solution; test compounds were then transferred to the lonFlux HT population patch plate. Internal recording solution (110 mM TrisPO4, 28 mM TrisBase, 0.1 mM CaCl2, 2 mM MgCl2, 11 mM EGTA, 4 mM MgATP) was added to the internal recording solution inlet wells on the IonFlux HT patch plate previously loaded with cells and test compounds, and the plate loaded into the IonFlux HT instrument. A protocol was executed on the IonFlux HT to trap the cells, break into the cells, and establish the whole-cell recording configuration; cells were voltage-clamped at a holding potential of −60 mV for the duration of the experiment, all experiments were conducted at room temperature, and the IonFlux HT injection pressure was 8 psi for solution applications. Upon establishing the whole-cell configuration, external recording solution was perfused into the recording chambers for 120 seconds and then 40 μM acetylcholine was applied for 1 second and immediately washed off with external recording solution for 60 seconds. The 40 μM acetylcholine-evoked α7 current served as the current response to which subsequent test compound effects, in the presence, or in the absence of 40 μM acetylcholine would be quantified relative to. Next, test compounds were evaluated at multiple concentrations for their ability to induce, or modulate α7 current responses; three concentrations of test compound were evaluated in ascending dose fashion per recording.
(In general: The patch-clamp technique gives a direct electrical read-out from membranes.)

Take `CC(C)c1noc([C@H]2[C@H](c3ncc(S(N)(=O)=O)s3)C2(C)C)n1` (racemic) [Example D5, 2-{trans-2,2-Dimethyl-3-[3-(propan-2-yl)-1,2,4-oxadiazol-5-yl]cyclopropyl}-1,3-thiazole-5-sulfonamide]: the EC50 by setting is: (read-out: α7 nAChR EC50) 4200 nM; (read-out: α7 nAChR Potency) 500 to 5000 nM.

On to `NS(=O)(=O)c1cnc([C@@H]2C[C@H]2c2nc(-c3ccccc3)no2)s1` (racemic) [Example D8, 2-[trans-2-(3-Phenyl-1,2,4-oxadiazol-5-yl)cyclopropyl]-1,3-thiazole-5-sulfonamide], for which the EC50 is 1000 nM (read-out: α7 nAChR EC50) and 500 to 5000 nM (read-out: α7 nAChR Potency).

On to `CC1(C)[C@H](c2ccc(S(N)(=O)=O)nc2)[C@H]1c1nc(-c2cccc(C(F)(F)F)c2)no1` [Example A10, 5-[(1R,3R)-2,2-Dimethyl-3-{3-[3-(trifluoromethyl)phenyl]-1,2,4-oxadiazol-5-yl}cyclopropyl]pyridine-2-sulfonamide], for which the EC50 (read-out: α7 nAChR Potency) was 500 to 5000 nM.

As to `CC1(C)[C@H](c2ccc(S(N)(=O)=O)nc2)[C@H]1c1nc(C2CCC2)no1` [Example A12, 5-[(1R,3R)-3-(3-Cyclobutyl-1,2,4-oxadiazol-5-yl)-2,2-dimethylcyclopropyl]pyridine-2-sulfonamide], the EC50 (read-out: α7 nAChR Potency) lay within 500 to 5000 nM.

Take `CC1(C)[C@@H](c2ccc(S(N)(=O)=O)nc2)[C@@H]1c1nc(C2CC2)no1` [Example B11, 5-[(1S,3S)-3-(3-Cyclopropyl-1,2,4-oxadiazol-5-yl)-2,2-dimethylcyclopropyl]pyridine-2-sulfonamide]: the EC50 (read-out: α7 nAChR Potency) fell in the range of 500 to 5000 nM.

Take `CC1(C)[C@@H](c2ccc(S(N)(=O)=O)nc2)[C@@H]1c1ncc(-c2ccccc2)o1` [Example 8, 5-[(1S,3S)-2,2-Dimethyl-3-(5-phenyl-1,3-oxazol-2-yl)cyclopropyl]pyridine-2-sulfonamide]: the EC50 was 1500 nM (read-out: α7 nAChR EC50) and 500 to 5000 nM (read-out: α7 nAChR Potency).

In the case of `NS(=O)(=O)c1ccc([C@@H]2C[C@H]2c2nc(C3CCCC3)no2)cn1` (racemic) [Example C9, 5-[trans-2-(3-Cyclopentyl-1,2,4-oxadiazol-5-yl)cyclopropyl]pyridine-2-sulfonamide], the EC50 (read-out: α7 nAChR Potency) was in the range of 500 to 5000 nM.

For the compound `CC1(C)[C@H](c2ccc(S(N)(=O)=O)nc2)[C@H]1c1nc(-c2cncc(F)c2)no1` [Example A9, 5-{(1R,3R)-3-[3-(5-Fluoropyridin-3-yl)-1,2,4-oxadiazol-5-yl]-2,2-dimethylcyclopropyl}pyridine-2-sulfonamide], the EC50 (read-out: α7 nAChR EC50) amounted to 5000 nM and the EC50 (read-out: α7 nAChR Potency) was 500 to 5000 nM.

On to `CC1(C)[C@@H](c2ccc(S(N)(=O)=O)cn2)[C@@H]1c1nc(C2CC2)no1` [Example F8, 6-[(1S,3S)-3-(3-Cyclopropyl-1,2,4-oxadiazol-5-yl)-2,2-dimethylcyclopropyl]pyridine-3-sulfonamide], for which the EC50 by setting is: (read-out: α7 nAChR EC50) 1400 nM; (read-out: α7 nAChR Potency) 500 to 5000 nM.

Consider `COc1ccc(Cl)cc1-c1noc([C@H]2[C@H](c3ncc(S(N)(=O)=O)s3)C2(C)C)n1` (racemic) [Example D7, 2-{trans-3-[3-(5-Chloro-2-methoxyphenyl)-1,2,4-oxadiazol-5-yl]-2,2-dimethylcyclopropyl}-1,3-thiazole-5-sulfonamide], for which the EC50 by setting is: (read-out: α7 nAChR EC50) 1200 nM; (read-out: α7 nAChR Potency) 500 to 5000 nM.

Take `CC1(C)C(c2ccc(S(N)(=O)=O)nc2)C1c1nc2ccccc2o1` (racemic) [Example C4, 5-[trans-3-(1,3-Benzoxazol-2-yl)-2,2-dimethylcyclopropyl]pyridine-2-sulfonamide]: the EC50 is, setting by setting: (read-out: α7 nAChR EC50) 5100 nM; (read-out: α7 nAChR Potency) 5000 to 50000 nM.

For `NS(=O)(=O)c1ccc([C@@H]2C[C@H]2c2nc(C3CCCC3)no2)nc1` (racemic) [Example G7, 6-[trans-2-(3-Cyclopentyl-1,2,4-oxadiazol-5-yl)cyclopropyl]pyridine-3-sulfonamide], the EC50 was 3000 nM (read-out: α7 nAChR EC50) and 500 to 5000 nM (read-out: α7 nAChR Potency).

With `NS(=O)(=O)c1ccc([C@@H]2C[C@H]2c2nc(-c3ccccc3)no2)nc1` (racemic) [Example G6, 6-[trans-2-(3-Phenyl-1,2,4-oxadiazol-5-yl)cyclopropyl]pyridine-3-sulfonamide], the EC50 reads like this: (read-out: α7 nAChR EC50) 1300 nM; (read-out: α7 nAChR Potency) 500 to 5000 nM.

Regarding `CC1(C)[C@H](c2ccc(S(N)(=O)=O)nc2)[C@H]1c1ncc(C2CCCC2)o1` [Example A4, 5-[(1R,3R)-3-(5-Cyclopentyl-1,3-oxazol-2-yl)-2,2-dimethylcyclopropyl]pyridine-2-sulfonamide], the EC50 was 3200 nM (read-out: α7 nAChR EC50) and 500 to 5000 nM (read-out: α7 nAChR Potency).

On to `CC1(C)[C@H](c2ccc(S(N)(=O)=O)cn2)[C@H]1c1nc(-c2cccc(F)c2)no1` [Example E1, 6-{(1R,3R)-3-[3-(3-Fluorophenyl)-1,2,4-oxadiazol-5-yl]-2,2-dimethylcyclopropyl}pyridine-3-sulfonamide], for which the EC50 is 4000 nM (read-out: α7 nAChR EC50) and 500 to 5000 nM (read-out: α7 nAChR Potency).

On to `CC1(C)[C@@H](c2ccc(S(N)(=O)=O)nc2)[C@@H]1c1ncc(C2CCCC2)o1` [Example B14, 5-[(1S,3S)-3-(5-Cyclopentyl-1,3-oxazol-2-yl)-2,2-dimethylcyclopropyl]pyridine-2-sulfonamide], for which the EC50 runs as follows: (read-out: α7 nAChR EC50) 590 nM; (read-out: α7 nAChR Potency) 500 to 5000 nM.

Turning to `NS(=O)(=O)c1ccc(C2CC2c2nc(-c3ccccc3)no2)cn1` (single isomer, unassigned) [Example 4, 5-[trans-2-(3-Phenyl-1,2,4-oxadiazol-5-yl)cyclopropyl]pyridine-2-sulfonamide], the EC50 (read-out: α7 nAChR EC50) was found to be 400 nM and the EC50 (read-out: α7 nAChR Potency) was in the range of 100 to 500 nM.

Regarding `CC1(C)[C@H](c2ccc(S(N)(=O)=O)nc2)[C@H]1c1nc(CC2CC2)no1` [Example A13, 5-{(1R,3R)-3-[3-(Cyclopropylmethyl)-1,2,4-oxadiazol-5-yl]-2,2-dimethylcyclopropyl}pyridine-2-sulfonamide], the EC50 (read-out: α7 nAChR Potency) fell in the range of 500 to 5000 nM.

For the compound `CC1(C)[C@@H](c2ccc(S(N)(=O)=O)cn2)[C@@H]1c1nc(-c2ccc(F)cc2F)no1` [Example F5, 6-{(1S,3S)-3-[3-(2,4-Difluorophenyl)-1,2,4-oxadiazol-5-yl]-2,2-dimethylcyclopropyl}pyridine-3-sulfonamide], the EC50 was 1700 nM (read-out: α7 nAChR EC50) and 500 to 5000 nM (read-out: α7 nAChR Potency).

For `CC1(C)[C@@H](c2ccc(S(N)(=O)=O)nc2)[C@@H]1c1nnc(-c2ccc(F)cc2F)s1` (relative stereo) [Example 2, 5-{trans-3-[5-(2,4-Difluorophenyl)-1,3,4-thiadiazol-2-yl]-2,2-dimethylcyclopropyl}pyridine-2-sulfonamide], the EC50 is 480 nM (read-out: α7 nAChR EC50) and 100 to 500 nM (read-out: α7 nAChR Potency).

In the case of `CC1(C)[C@@H](c2ccc(S(N)(=O)=O)nc2)[C@@H]1c1noc(C2CCCCC2)n1` (racemic) [Example C10, 5-[trans-3-(5-Cyclohexyl-1,2,4-oxadiazol-3-yl)-2,2-dimethylcyclopropyl]pyridine-2-sulfonamide], the EC50 reads like this: (read-out: α7 nAChR EC50) 2100 nM; (read-out: α7 nAChR Potency) 500 to 5000 nM.

In the case of `CC1(C)[C@H](c2ccc(S(N)(=O)=O)cn2)[C@H]1c1nc(-c2cccc(C(F)(F)F)c2)no1` [Example E6, 6-[(1R,3R)-2,2-Dimethyl-3-{3-[3-(trifluoromethyl)phenyl]-1,2,4-oxadiazol-5-yl}cyclopropyl]pyridine-3-sulfonamide], for the setting “read-out: α7 nAChR Potency”, the EC50 is 500 to 5000 nM.

Take `CC1(C)[C@@H](c2ccc(S(N)(=O)=O)cn2)[C@@H]1c1nc(-c2ccccc2)no1` [Example F10, 6-[(1S,3S)-2,2-Dimethyl-3-(3-phenyl-1,2,4-oxadiazol-5-yl)cyclopropyl]pyridine-3-sulfonamide]: the EC50 by setting is: (read-out: α7 nAChR EC50) 1100 nM; (read-out: α7 nAChR Potency) 500 to 5000 nM.
